In patent publication EP3431088A1, “MNTBAP FOR USE IN INDUCING A TRANSIENT IMMUNE TOLERANCE” (priority 2017, dated 2019):

Tests used:
rAAV1 CMV mSeap vector = test: rAAV readministration in TA: mSeap expression and vector copy number; type: in vivo, C57BL/6 mice
Experimental: (§1) MnTBAP (Calbiochem, San Diego, USA or Enzo Life Sciences, Farmingdale, USA) is dissolved in 75 mM NaOH to constitute a 20 mM stock solution. MnTBAP is dissolved in the complete medium, used for in vitro treatment, containing RPMI-1640 supplemented with 10% heat-inactivated fetal calf serum, 100 U/ml penicillin/streptomycin, 2 mM glutamax and 50 µM β-mercaptoethanol β-ME). Hypertonic medium, used to block clathrin dependent endocytosis, is complete medium supplemented with 0.45 M sucrose. For in vivo treatment, the stock solution is diluted with PBS and administered at 80 mg/kg intraperitoneally daily during five days. Control animals are injected with equivalent volume of PBS.
Readministration protocol: After the initial IV injection of rAAV2/1 CMV SGCA HY vector at D0 (two hours post first IP injection of MnTBAP) the second rAAV1 injection (2.10^9 vg of rAAV2/1 CMV mSeAP) is performed 28 days later in the left TA muscle. Mice are followed up to 93 days after readministration to analyze capsid-specific humoral response and to measure circulating mSeAP from serum samples. Mice are killed 93 days after second injection of vector. […]
Genomic DNA is extracted from frozen muscles using MagNA Pure 96 Instrument (Roche). […] Results are calculated from a standard curve based on dilutions of 2 plasmids containing either the Titin or CMV sequences. […]
Determination of alkaline phosphatase concentration in immunized mice sera is performed by chemoluminescence analyzis (C. Riviere et al., Gene therapy 13, 1300. 2006). Blood samples are centrifuged for 10 min at 8000 rpm to collect sera, endogenous alkaline phosphatase is heat inactivated for 5 min at 65°C and the heat-resistant mSeAP is measured by addition of the reaction buffer and CSPD® chemiluminescent substrate, according to the manufacturer's instructions (Tropix, Applied Biosystems, Forster City, USA). Chemiluminescence is quantified using a luminometer, Enspire (Perkin Elmer, Massachusetts, USA). Expression levels are expressed as ng of mSeAP per ml of serum using a standard curve of purified human placental alkaline phosphatase.

[1] = system: humoral response against capsid; test: Anti-rAAV1 IgG titers by ELISA after IV rAAV and readministration; type: in vivo, C57BL/6 mice; settings: for specific anti-rAAV IgG: 80 mg/kg IP daily 5 days, vs control group
Experimental: as §1
Intravenous (IV) injection: Two hours post first IP injection of MnTBAP, mice are anesthetized by IP injection of xylazine (10 mg/kg) and ketamine (100 mg/kg) and 200 µl of a rAAV2/1 CMV SGCA HY viral preparation containing 2.5.10^9 vg is injected into retro orbital sinus or into tail vein. Controls are injected with PBS. Serum samples are harvested at D21 and D28 post vector injection to analyze capsid-specific humoral response.
Readministration protocol: After the initial IV injection of rAAV2/1 CMV SGCA HY vector at D0 (two hours post first IP injection of MnTBAP) the second rAAV1 injection (2.10^9 vg of rAAV2/1 CMV mSeAP) is performed 28 days later in the left TA muscle. Mice are followed up to 93 days after readministration to analyze capsid-specific humoral response and to measure circulating mSeAP from serum samples. Mice are killed 93 days after second injection of vector. Left and right TA muscles are harvested for histological and enzymatic assay.
rAAVl-specific serum antibody titers are evaluated by ELISA. […] Reaction is stopped with an H2SO4 solution and the optical density at 450 nm is determined using a […] (Discovery HT-R, BioServ, Thiais, France) with KC4 software. The area under the curve (AUC) values obtained from the optical densities at four dilution points are calculated for statistical analysis using GraphPad Prism software (Logi Labo, Paris, France).

injected TA muscle = test: IM rAAV gene transfer: histology and RT-PCR of injected TA muscle; type: in vivo, C57BL/6 mice; settings: fifteen days post IM rAAV1 vector injection
[2] = system: splenic T-lymphocyte subsets; test: Absolute numbers of splenic T-lymphocyte subsets by flow cytometry; type: in vivo, mice; settings: 15 days post first injection, after gene transfer, vs PBS
Experimental: as §1
Intramuscular (IM) injection: Two hours post first intraperitoneal (IP) injection of MnTBAP, mice are anesthetized by IP injection of xylazine (10 mg/kg) and ketamine (100 mg/kg) and 25 µl of a rAAV2/1 CMV SGCA HY viral preparation containing 2.5.10^9 vg is injected in the left tibialis anterior muscle (TA). Controls are injected with PBS. Mice are sacrificed 15 days after vector injection and the injected muscles are harvested to perform histologic analysis. Spleens are harvested to analyze transgene-specific T cell response.
After mechanic disruption of the spleen, erythrocytes are eliminated by hypotonic shock with ammonium chloride potassium (ACK) lysing buffer. […]

[3] = injected TA, vs non-treated control groups

In the case of `O=C(O)c1ccc(-c2c3nc(c(-c4ccc(C(=O)O)cc4)c4ccc([n-]4)c(-c4ccc(C(=O)O)cc4)c4nc(c(-c5ccc(C(=O)O)cc5)c5ccc2[n-]5)C=C4)C=C3)cc1.[Mn+3]` [MnTBAP, manganese [III] tetrakis (4-benzoic acid) porphyrin], the “level of mSeap in the serum” value (rAAV1 CMV mSeap vector; 93 days after vector readministration, vs control mice) is reported as “significantly increased”, the “histochemical detection of mSeap in muscle” value (rAAV1 CMV mSeap vector; injected TA harvested 93 days after vector readministration) is reported as “detection of the reporter gene mSeap” and the “normalized copy number of the readministered rAAV” value (rAAV1 CMV mSeap vector; injected TA, CMV PCR normalized to titin, vs control mice) is reported as “significantly increased”. The “specific anti-rAAV IgG” value ([1]; Day 21 post IV vector injection) was “no or significantly less specific anti-rAAV IgG”, the “specific anti-rAAV IgG” value ([1]; Day 28 post IV vector injection) was “no or significantly less specific anti-rAAV IgG” and the “specific anti-rAAV IgG titer” value ([1]; serum 10 days after vector readministration in TA (28 days post first injection), vs PBS) was “decrease of specific anti-rAAV IgG titer”. For the same compound, the muscle integrity (injected TA muscle; 80 mg/kg IP daily 5 days) was “normal muscle integrity”, the “CD8a mRNA expression” value (injected TA muscle; [3]) was “decrease of CD8a mRNA expression” and the SGCA transgene expression (injected TA muscle; [3]) was “increase of the SGCA transgene expression”. For the same compound, the “absolute number of splenic CD4^+ T cells” value [2] was “significant decrease in the absolute number” and the “absolute number of splenic CD8^+ T cells” value [2] was “significant decrease in the absolute number”.
